# Target: human NaV1.8 (Homo sapiens (Human), UniProt Q9Y5Y9)
# Test: Nav1.8 Qube automated patch-clamp assay
# Assay type: cell-based
# Conditions: human NaV1.8 stably expressed in HEK 293 cells; automated 384-well patch-clamp; resting or inactivated state not specified
# Method in brief: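 Human NaV1.8 in HEK293 cells, automated whole-cell patch clamp at room temperature: 1 Hz train of ten 20 ms pulses to 10 mV from −90 mV, repolarization to −67 mV. First- and tenth-pulse peak currents gave resting and inactivated-state IC50 values via Hill fits.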
# Sequence of human NaV1.8 (Q9Y5Y9 whole entry): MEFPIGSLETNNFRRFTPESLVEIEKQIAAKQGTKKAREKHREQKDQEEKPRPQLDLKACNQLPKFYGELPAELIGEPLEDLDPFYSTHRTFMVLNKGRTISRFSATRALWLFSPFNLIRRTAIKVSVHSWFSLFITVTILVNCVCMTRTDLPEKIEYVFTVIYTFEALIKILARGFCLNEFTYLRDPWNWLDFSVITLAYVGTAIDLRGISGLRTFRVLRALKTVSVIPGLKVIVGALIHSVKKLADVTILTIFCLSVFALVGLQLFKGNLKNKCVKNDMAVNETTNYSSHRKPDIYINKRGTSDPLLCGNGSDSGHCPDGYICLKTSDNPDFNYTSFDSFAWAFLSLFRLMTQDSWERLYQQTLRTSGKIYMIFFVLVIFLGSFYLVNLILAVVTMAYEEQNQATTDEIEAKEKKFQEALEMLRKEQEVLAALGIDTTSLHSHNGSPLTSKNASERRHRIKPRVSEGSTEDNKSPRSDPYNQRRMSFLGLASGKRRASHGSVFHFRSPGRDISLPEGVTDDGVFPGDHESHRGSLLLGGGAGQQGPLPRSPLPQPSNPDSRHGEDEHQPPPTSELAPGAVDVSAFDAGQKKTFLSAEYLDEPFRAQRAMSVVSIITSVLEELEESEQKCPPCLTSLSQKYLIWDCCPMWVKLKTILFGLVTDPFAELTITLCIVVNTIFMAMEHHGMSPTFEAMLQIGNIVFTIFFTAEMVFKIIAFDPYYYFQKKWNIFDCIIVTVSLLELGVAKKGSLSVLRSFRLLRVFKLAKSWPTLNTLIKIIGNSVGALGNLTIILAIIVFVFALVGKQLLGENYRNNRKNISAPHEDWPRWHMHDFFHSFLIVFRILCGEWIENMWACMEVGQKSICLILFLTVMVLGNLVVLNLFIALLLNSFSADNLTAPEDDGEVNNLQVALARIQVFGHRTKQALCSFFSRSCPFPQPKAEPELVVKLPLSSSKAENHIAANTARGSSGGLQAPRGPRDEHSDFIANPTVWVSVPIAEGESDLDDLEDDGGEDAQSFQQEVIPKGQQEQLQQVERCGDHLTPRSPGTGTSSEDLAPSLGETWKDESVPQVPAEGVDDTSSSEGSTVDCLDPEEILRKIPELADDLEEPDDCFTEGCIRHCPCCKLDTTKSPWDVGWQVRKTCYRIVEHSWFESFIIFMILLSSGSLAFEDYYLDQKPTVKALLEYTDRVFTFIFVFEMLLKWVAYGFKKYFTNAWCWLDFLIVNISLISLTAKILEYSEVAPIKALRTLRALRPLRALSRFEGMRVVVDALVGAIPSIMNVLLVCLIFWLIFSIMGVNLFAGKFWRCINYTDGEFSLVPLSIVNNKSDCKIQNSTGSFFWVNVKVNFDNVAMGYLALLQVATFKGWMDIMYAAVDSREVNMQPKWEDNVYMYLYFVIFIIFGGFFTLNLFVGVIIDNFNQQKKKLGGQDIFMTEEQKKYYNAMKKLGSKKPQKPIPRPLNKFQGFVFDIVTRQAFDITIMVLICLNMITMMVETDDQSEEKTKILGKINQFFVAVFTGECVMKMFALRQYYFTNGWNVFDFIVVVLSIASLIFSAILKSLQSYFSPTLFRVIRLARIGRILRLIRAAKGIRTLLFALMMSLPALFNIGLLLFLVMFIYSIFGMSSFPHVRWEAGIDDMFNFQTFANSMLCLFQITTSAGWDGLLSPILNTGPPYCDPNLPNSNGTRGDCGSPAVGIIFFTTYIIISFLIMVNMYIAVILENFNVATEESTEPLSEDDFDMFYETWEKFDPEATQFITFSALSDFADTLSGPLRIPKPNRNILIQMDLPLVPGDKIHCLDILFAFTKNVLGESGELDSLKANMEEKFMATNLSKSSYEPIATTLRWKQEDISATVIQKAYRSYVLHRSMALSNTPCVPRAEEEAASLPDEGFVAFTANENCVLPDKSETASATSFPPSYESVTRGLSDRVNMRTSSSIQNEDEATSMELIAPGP
row,IC50 [nM],Structure (SMILES)
1,8.6,"O=C1NC[C@@H](C(=O)NC(c2ccc(F)c(Cl)c2)c2nc3ccccc3o2)N1 (single isomer, unassigned) [Example 88, (S)-N-((R or S)-benzo[d]oxazol-2-yl(3-chloro-4-fluoro-phenyl)methyl)-2-oxoimidazolidine-4-carboxamide]"
2,4.9,"O=C1NC[C@@H](C(=O)NC(c2ccc(OC(F)(F)F)cc2)c2ccc3c(c2)C(F)(F)C3)N1 (single isomer, unassigned) [Example 89, (S)—N—((R or S)-(8,8-difluorobicyclo[4.2.0]octa-1(6),2,4-trien-3-yl)(4-(trifluoromethoxy)phenyl)methyl)-2-oxoimidazolidine-4-carboxamide]"
3,3.8,"O=C1NC[C@@H](C(=O)NC(c2ccc(Cl)cc2)c2ccc3c(c2)CC3(F)F)N1 (single isomer, unassigned) [Example 90, (S)-N-((R or S)-(4-chlorophenyl)(7,7-difluorobicyclo[4.2.0]octa-1(6),2,4-trien-3-yl)methyl)-2-oxoimidazolidine-4-carboxamide]"
4,289,"CC1(C)CC(C(NC(=O)[C@@H]2CNC(=O)N2)c2ccc(Cl)cc2)CCN1CC(F)(F)F (single isomer, unassigned) [Example 91A, (4S)—N—((R or S)(4-chlorophenyl)((R or S)2,2-dimethyl-1-(2,2,2-trifluoroethyl)piperidin-4-yl)methyl)-2-oxoimidazolidine-4-carboxamide]"
5,899,"CC1(C)CC(C(NC(=O)[C@@H]2CNC(=O)N2)c2ccc(Cl)cc2)CCN1CC(F)(F)F (single isomer, unassigned) [Example 91B, (4S)—N—((R or S)(4-chlorophenyl)((R or S)2,2-dimethyl-1-(2,2,2-trifluoroethyl)piperidin-4-yl)methyl)-2-oxoimidazolidine-4-carboxamide]"
6,2960,"CC1(C)CC(C(NC(=O)[C@@H]2CNC(=O)N2)c2ccc(Cl)cc2)CCN1CC(F)(F)F (single isomer, unassigned) [Example 91C, (4S)—N—((R or S)(4-chlorophenyl)((R or S)2,2-dimethyl-1-(2,2,2-trifluoroethyl)piperidin-4-yl)methyl)-2-oxoimidazolidine-4-carboxamide]"
7,458,"CC1(C)CC(C(NC(=O)[C@@H]2CNC(=O)N2)c2ccc(Cl)cc2)CCN1CC(F)(F)F (single isomer, unassigned) [Example 91D, (4S)—N—((R or S)(4-chlorophenyl)((R or S)2,2-dimethyl-1-(2,2,2-trifluoroethyl)piperidin-4-yl)methyl)-2-oxoimidazolidine-4-carboxamide]"
8,28,"O=C1NC[C@@H](C(=O)NC(c2ccc(Cl)cc2)c2ncc(Cl)c(C(F)(F)F)n2)N1 (stereo partly drawn) [Example 6, (S)—N-((5-chloro-4-(trifluoromethyl)pyrimidin-2-yl)(4-chlorophenyl)methyl)-2-oxoimidazolidine-4-carboxamide]"
9,0.7,"O=C1NC[C@@H](C(=O)NC(c2ccc(F)c(Cl)c2)c2ccc(F)c(Cl)c2)N1 [Example 61, (S)-N-(bis(3-chloro-4-fluorophenyl)methyl)-2-oxoimidazolidine-4-carboxamide]"
10,604,"CC1(C)CC(C(NC(=O)[C@@H]2CNC(=O)N2)c2ccc(F)c(Cl)c2)C1C(F)(F)F (stereo partly drawn) [Example 68, (4S)-N-((3-chloro-4-fluorophenyl)(3,3-dimethyl-2-(trifluoromethyl)cyclobutyl)methyl)-2-oxoimidazolidine-4-carboxamide]"
11,141,"O=C1NC[C@@H](C(=O)NC(c2ccc(F)c(Cl)c2)C2Cc3ccc(F)cc32)N1 (stereo partly drawn) [Example 69, (4S)-N-((3-chloro-4-fluorophenyl)(4-fluorobicyclo[4.2.0]octa-1(6),2,4-trien-7-yl)methyl)-2-oxoimidazolidine-4-carboxamide]"
12,44,"O=C1NC[C@@H](C(=O)NC(c2ccc(F)c(Cl)c2)C2Cc3ccc(Cl)cc32)N1 (stereo partly drawn) [Example 71, (4S)-N-((3-chloro-4-fluorophenyl)(4-chlorobicyclo[4.2.0]-octa-1(6),2,4-trien-7-yl)methyl)-2-oxoimidazolidine-4-carboxamide]"
13,74,"O=C1NC[C@@H](C(=O)NC(c2ccc(F)c(Cl)c2)c2nc3cccnc3s2)N1 (stereo partly drawn) [Example 72, (4S)-N-((3-chloro-4-fluorophenyl)(thiazolo [5,4-b]pyridin-2-yl)methyl)-2-oxoimidazolidine-4-carboxamide]"
14,35,"Cc1nc(C(F)(F)F)sc1C(NC(=O)[C@@H]1CNC(=O)N1)c1ccc(Cl)cc1 (stereo partly drawn) [Example 76, (4S)-N-((4-chlorophenyl)(4-methyl-2-(trifluoro-methyl)thiazol-5-yl)methyl)-2-oxoimidazolidine-4-carboxamide]"
15,320,"N#Cc1ccc(C(NC(=O)[C@@H]2CNC(=O)N2)c2ccc(F)c(Cl)c2)nc1 (stereo partly drawn) [Example 86, (4S)-N-[(3-chloro-4-fluorophenyl)(5-cyanopyridin-2-yl)methyl]-2-oxoimidazolidine-4-carboxamide]"

# Reference: patent publication US20230312528A1, “2-OXO-IMIDAZOLIDINE-4-CARBOXAMIDES AS NAV1.8 INHIBITORS” (Merck Sharp & Dohme LLC, priority 2020, published 2023)
